Laboratory results as given in patent US20240139333A1, “2,6-DICHLOROPHENYL ESTER COMPOUNDS AND USE THEREOF” (Fusion Pharmaceuticals Inc., priority 2021, published 2024).
One block for each molecule: values may come before it.

How the values were obtained:
[1] = Active ester reactivity study with amino acids (N-Acetyl-L-Cysteine); settings: N-Acetyl-L-Cysteine 5 eq., 22±2° C.
Experimental: (§1) General Experimental Protocol for Nucleophilic Reactivity Study with Amino Acids
(§2) To a 4 mL scintillation vial containing Compound A or C (1 eq.) was added a stir bar followed by 70 μL of HPLC grade acetonitrile. In another 4 mL scintillation vial containing a respective amino acid (1-5 eq.) was added 130 μL HPLC grade water followed by diisopropylethylamine (5 eq.). The solutions were combined and allowed to stir at room temperature (22±2° C.) for 4 hours. Timed aliquots at time (T)=15, 30, 60, 120 and 240 minutes were taken and analyzed by HPLC-MS using elution method 1 (Table 6).

[2] = pH stability study; assay type: physicochemical; settings: 20° C.
Experimental: To a 4 mL scintillation vial containing Compound A-E (in respective experiments; 0.8 mg) was added 4 mL of either a pH 3, pH 5 pH 7 or pH 9 buffer to create a 0.2 mg/mL solution. 2 mL of this solution was added to a 2 mL HPLC vial and placed in the auto sampler of an HPLC-MS at 20° C. Timed aliquots at time (T)=15, 30, 60, 120, 240 and 480 minutes were taken and analyzed by HPLC-MS using elution method 1 (Table 3). […]
pH 3 Buffer: Citric acid/Na2HPO4 (79.45 mL 0.1 M-citric acid and 20.55 mL 0.2-Na2HPO4) pH 5 Buffer: Citric acid/Na2HPO4 (48.50 mL 0.1 M-citric acid and 51.50 mL 0.2-Na2HPO4) pH 7 Buffer: Citric acid/Na2HPO4 (17.65 mL 0.1 M-citric acid and 82.35 mL 0.2-Na2HPO4) pH 9 Buffer: Sodium Carbonate/Sodium Bicarbonate (10 mL 0.1 M-Na2CO3 and 90 mL 0.1-NaHCO3)

[3] = Active ester reactivity study with amino acids (Z-Ser-OH); settings: Z-Ser-OH 1 eq., 22±2° C.
Experimental: as §1, §2

[4] = Comparative active ester reactivity study with HOPO nucleophile; settings: 1,2-HOPO 1 eq., 22±2° C.
Experimental: (§3) General Experimental Protocol for Comparative Active Ester Reactivity Study with HOPO or HOA Nucleophiles
as §2, with “A-E (in respective experiments; 1” for “A or C (1”, “150” for “70”, “nucleophile (1” for “amino acid (1-5”, “280” for “130”, “water.” for “water followed by diisopropylethylamine (5 eq.).”, “1).” for “6).”

[5] = Nucleophilic reactivity study with L-Lysine; settings: L-Lysine 5 equiv
Experimental: General Experimental Protocol for Nucleophilic Reactivity Study with L-Lysine
as §2, with “A-E (in respective experiments; 1” for “A or C (1”, “L-Lysine monohydrochloride (5” for “a respective amino acid (1-5”, “C.).” for “C.) for 4 hours.”, “60 and” for “60,”, “120” for “120 and 240”, “2).” for “6).”

[6] = DMSO stability study; assay type: physicochemical
Experimental: To a 4 mL scintillation vial containing Compound A-E (in respective experiments; 4 mg) was added a stir bar followed by 500 μL of anhydrous dimethyl sulfoxide and was allowed to stir at room temperature (22±2° C.) for 4 hours. Timed aliquots at time (T)=15, 30, 60, 120 and 240 minutes were taken, dissolved in water to achieve 2% DMSO composition and analyzed by HPLC-MS using elution method 1 (Table 5).

[7] = Comparative active ester reactivity study with HOA nucleophile (N-hydroxy-N-methylbenzamide); settings: N-Hydroxy-N-methylbenzamide 1 eq., 22±2° C.
Experimental: as §3
as §2, with “A-E (in respective experiments; 1” for “A or C (1”, “150” for “70”, “nucleophile (1” for “amino acid (1-5”, “280” for “130”, “water.” for “water followed by diisopropylethylamine (5 eq.).”, “1).” for “6).”

[8] = Active ester reactivity study with amino acids (Z-Arg-OH); settings: Z-Arg-OH 1 eq., 22±2° C.
Experimental: as §1, §2

% Active Ester Remaining ([1]; 15 min): 95.12%
% Active Ester Remaining ([1]; 30 min): 91.95%
% Active Ester Remaining ([1]; 60 min): 85.25%
% Active Ester Remaining ([1]; 120 min): 56.62%
% Active Ester Remaining ([1]; 240 min): 0%
% Remaining ([2]; pH 3 buffer, 15 min): 98.19%
% Remaining ([2]; pH 3 buffer, 30 min): 93.92%
% Remaining ([2]; pH 3 buffer, 60 min): 89.61%
% Remaining ([2]; pH 3 buffer, 120 min): 82.13%
% Remaining ([2]; pH 3 buffer, 240 min): 68.98%
% Remaining ([2]; pH 3 buffer, 480 min): 48.46%
% Remaining ([2]; pH 5 buffer, 15 min): 96.06%
% Remaining ([2]; pH 5 buffer, 30 min): 86.91%
% Remaining ([2]; pH 5 buffer, 60 min): 79.07%
% Remaining ([2]; pH 5 buffer, 120 min): 65.20%
% Remaining ([2]; pH 5 buffer, 240 min): 45.26%
% Remaining ([2]; pH 5 buffer, 480 min): 20.20%
% Remaining ([2]; pH 7 buffer, 15 min): 94.61%
% Remaining ([2]; pH 7 buffer, 30 min): 83.82%
% Remaining ([2]; pH 7 buffer, 60 min): 73.25%
% Remaining ([2]; pH 7 buffer, 120 min): 54.53%
% Remaining ([2]; pH 7 buffer, 240 min): 27.99%
% Remaining ([2]; pH 7 buffer, 480 min): 5.60%
% Remaining ([2]; pH 9 buffer, 15 min): 7.60%
% Remaining ([2]; pH 9 buffer, 30 min): 1.71%
% Remaining ([2]; pH 9 buffer, 60 min): 0.49%
% Remaining ([2]; pH 9 buffer, 120 min): 0%
% Active Ester Remaining ([3]; 15 min): 41.75%
% Active Ester Remaining ([3]; 30 min): 28.90%
% Active Ester Remaining ([3]; 60 min): 10.96%
% Active Ester Remaining ([3]; 120 min): 2.89%
% Active Ester Remaining ([3]; 240 min): 0.12%
% Active Ester Remaining ([4]; 15 min): 40.02%
% Active Ester Remaining ([4]; 30 min): 17.81%
% Active Ester Remaining ([4]; 60 min): 9.78%
% Active Ester Remaining ([4]; 120 min): 5.19%
% Active Ester Remaining ([4]; 240 min): 0.94%
% Active Ester Remaining ([5]; 15 min, 22±2° C.): 0%
% Active Ester Remaining in DMSO at 22 ± 2° C. ([6]; 15 min): 96.55%
% Active Ester Remaining in DMSO at 22 ± 2° C. ([6]; 30 min): 94.71%
% Active Ester Remaining in DMSO at 22 ± 2° C. ([6]; 60 min): 93.91%
% Active Ester Remaining in DMSO at 22 ± 2° C. ([6]; 120 min): 92.60%
% Active Ester Remaining in DMSO at 22 ± 2° C. ([6]; 240 min): 88.57%
% Active Ester Remaining ([7]; 15 min): 81.12%
% Active Ester Remaining ([7]; 30 min): 72.43%
% Active Ester Remaining ([7]; 60 min): 61.68%
% Active Ester Remaining ([7]; 120 min): 50.09%
% Active Ester Remaining ([7]; 240 min): 37.80%
% Active Ester Remaining ([8]; 15 min): 22.34%
% Active Ester Remaining ([8]; 30 min): 3.47%
% Active Ester Remaining ([8]; 60 min): 0.36%
% Active Ester Remaining ([8]; 120 min): 0%
SMILES: O=C(CCc1cccnc1)Oc1c(F)c(F)cc(F)c1F [Compound C, 2,3,5,6-Tetrafluorophenyl-3-(pyridin-3-yl)propanoate]

SMILES: O=C(CCc1cccnc1)Oc1c(Cl)cccc1Cl [Compound A, 2,6-Dichlorophenyl-3-(pyridin-3-yl)propanoate]
% Active Ester Remaining ([1]; 15 min): 100%
% Active Ester Remaining ([1]; 30 min): 99.86%
% Active Ester Remaining ([1]; 60 min): 99.84%
% Active Ester Remaining ([1]; 120 min): 99.70%
% Active Ester Remaining ([1]; 240 min): 82.52%
% Remaining ([2]; pH 3 buffer, 15 min): 100%
% Remaining ([2]; pH 3 buffer, 30 min): 100%
% Remaining ([2]; pH 3 buffer, 60 min): 100%
% Remaining ([2]; pH 3 buffer, 120 min): 100%
% Remaining ([2]; pH 3 buffer, 240 min): 100%
% Remaining ([2]; pH 3 buffer, 480 min): 100%
% Remaining ([2]; pH 5 buffer, 15 min): 100%
% Remaining ([2]; pH 5 buffer, 30 min): 100%
% Remaining ([2]; pH 5 buffer, 60 min): 100%
% Remaining ([2]; pH 5 buffer, 120 min): 100%
% Remaining ([2]; pH 5 buffer, 240 min): 100%
% Remaining ([2]; pH 5 buffer, 480 min): 100%
% Remaining ([2]; pH 7 buffer, 15 min): 100%
% Remaining ([2]; pH 7 buffer, 30 min): 100%
% Remaining ([2]; pH 7 buffer, 60 min): 100%
% Remaining ([2]; pH 7 buffer, 120 min): 99.35%
% Remaining ([2]; pH 7 buffer, 240 min): 98.75%
% Remaining ([2]; pH 7 buffer, 480 min): 97.82%
% Remaining ([2]; pH 9 buffer, 15 min): 98.15%
% Remaining ([2]; pH 9 buffer, 30 min): 95.27%
% Remaining ([2]; pH 9 buffer, 60 min): 92.61%
% Remaining ([2]; pH 9 buffer, 120 min): 87.81%
% Remaining ([2]; pH 9 buffer, 240 min): 79.28%
% Remaining ([2]; pH 9 buffer, 480 min): 61.56%
% Active Ester Remaining ([3]; 15 min): 97.56%
% Active Ester Remaining ([3]; 30 min): 97.14%
% Active Ester Remaining ([3]; 60 min): 96.30%
% Active Ester Remaining ([3]; 120 min): 93.35%
% Active Ester Remaining ([3]; 240 min): 91.55%
% Active Ester Remaining ([4]; 15 min): 99.32%
% Active Ester Remaining ([4]; 30 min): 98.56%
% Active Ester Remaining ([4]; 60 min): 96.90%
% Active Ester Remaining ([4]; 120 min): 95.51%
% Active Ester Remaining ([4]; 240 min): 93.74%
% Active Ester Remaining ([5]; 15 min, 22±2° C.): 60.44%
% Active Ester Remaining ([5]; 30 min, 22±2° C.): 26.31%
% Active Ester Remaining ([5]; 60 min, 22±2° C.): 0.98%
% Active Ester Remaining ([5]; 120 min, 22±2° C.): 0%
% Active Ester Remaining ([5]; DMAP 10 mol % added, 15 min): 0.86%
% Active Ester Remaining ([5]; DMAP 10 mol % added, 30 min): 0%
% Active Ester Remaining in DMSO at 22 ± 2° C. ([6]; 15 min): 100%
% Active Ester Remaining in DMSO at 22 ± 2° C. ([6]; 30 min): 99.95%
% Active Ester Remaining in DMSO at 22 ± 2° C. ([6]; 60 min): 99.81%
% Active Ester Remaining in DMSO at 22 ± 2° C. ([6]; 120 min): 99.75%
% Active Ester Remaining in DMSO at 22 ± 2° C. ([6]; 240 min): 99.60%
% Active Ester Remaining ([7]; 15 min): 99.57%
% Active Ester Remaining ([7]; 30 min): 99.24%
% Active Ester Remaining ([7]; 60 min): 98.36%
% Active Ester Remaining ([7]; 120 min): 96.11%
% Active Ester Remaining ([7]; 240 min): 92.22%
% Active Ester Remaining ([8]; 15 min): 94.23%
% Active Ester Remaining ([8]; 30 min): 90.34%
% Active Ester Remaining ([8]; 60 min): 86.74%
% Active Ester Remaining ([8]; 120 min): 78.45%
% Active Ester Remaining ([8]; 240 min): 73.31%
